Data reported in paper PMC4724233 (European journal of medicinal chemistry, 2015).

How the values were obtained:
PXR [1] = settings: only at very high concentrations, 20 or 40 μM; cited from earlier work
CAR = settings: only at very high concentrations, 20 or 40 μM; cited from earlier work
PXR [2] = settings: cited from earlier work
GST-hCAR-LBD = molecular target: T1, GST-hCAR-LBD (Homo sapiens, UniProt Q14994); experiment: CAR-mediated fluorescent PGC1α coactivator recruitment/repression assay; settings: ratio of IC50 values; for fold more potent than lead compound CINPA1 (11) / fold increase of IC50 (less potent) relative to lead chemical 11: comparator 11 (IC50 687 nM)
T1 sequence (Q14994 109-348 isoform Q14994-2 limits assumed): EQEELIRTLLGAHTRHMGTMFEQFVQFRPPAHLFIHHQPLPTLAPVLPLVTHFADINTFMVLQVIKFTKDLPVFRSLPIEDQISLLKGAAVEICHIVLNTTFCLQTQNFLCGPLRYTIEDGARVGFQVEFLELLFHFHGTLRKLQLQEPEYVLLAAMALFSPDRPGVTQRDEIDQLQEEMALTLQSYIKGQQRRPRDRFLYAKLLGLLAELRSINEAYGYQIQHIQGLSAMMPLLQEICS

hCAR = settings: cultured human hepatocytes; cited from earlier work

fold more potent than lead compound CINPA1 (11) (GST-hCAR-LBD)	fold increase of IC50 (less potent) relative to lead chemical 11 (GST-hCAR-LBD)	SMILES	other results
–	5 fold	CCOC(=O)Nc1ccc2c(c1)N(C(=O)CNC(C)(C)C)c1ccccc1CC2 [Compound 16]	–
3 fold	–	CCCN(CCC)CC(=O)N1c2ccccc2CCc2ccc(NC(=O)OCC)cc21 [Compound 22, Ethyl (5-(dipropylglycyl)-10,11-dihydro-5H-dibenzo[b,f]azepin-3-yl)carbamate]	–
–	more than 4 fold	CCOC(=O)Nc1ccc2c(c1)N(C(=O)CN(C(C)C)C(C)C)c1ccccc1CC2 [Compound 23, Ethyl (5-(diisopropylglycyl)-10,11-dihydro-5H-dibenzo[b,f]azepin-3-yl)carbamate]	–
–	more than 2 fold	CCOC(=O)Nc1ccc2c(c1)N(C(=O)CN1CCCC1)c1ccccc1CC2 [Compound 24, Ethyl (5-(2-(pyrrolidin-1-yl)acetyl)-10,11-dihydro-5H-dibenzo[b,f]azepin-3-yl)carbamate]	–
19 fold	–	CCOC(=O)Nc1ccc2c(c1)N(C(=O)Cn1cccc1)c1ccccc1CC2 [Compound 29, Ethyl (5-(2-(1H-pyrrol-1-yl)acetyl)-10,11-dihydro-5H-dibenzo[b,f]azepin-3-yl)carbamate]	fold more potent than chemical 24 (GST-hCAR-LBD; comparator 24): 43 fold
–	3 fold	CCOC(=O)Nc1ccc2c(c1)N(C(=O)CNC(C)(C)CC)c1ccccc1CC2 [Compound 32, Ethyl (5-(tert-pentylglycyl)-10,11-dihydro-5H-dibenzo[b,f]azepin-3-yl)carbamate]	–
–	3.5 fold	CCOC(=O)Nc1ccc2c(c1)N(C(=O)CCN(CC)CC)c1ccccc1CC2 [Compound 33, Ethyl (5-(3-(diethylamino)propanoyl)-10,11-dihydro-5H-dibenzo[b,f]azepin-3-yl)carbamate]	–

The next lines start with the compound.

SMILES	fold more potent than lead compound CINPA1 (11) (GST-hCAR-LBD)	fold increase of IC50 (less potent) relative to lead chemical 11 (GST-hCAR-LBD)	other results
C=CCN=C=S [AITC, allyl isothiocyanate]	–	–	inhibitory effect against PXR (PXR [1]): inhibitory effects against both CAR and PXR; inhibitory effect against CAR (CAR): inhibitory effects against both CAR and PXR
CCOC(=O)Nc1ccc2c(c1)N(C(=O)CN(CC)CC)c1ccccc1CC2 [Compound 11, ethyl (5-(diethylglycyl)-10,11-dihydro-5H-dibenzo[b,f]azepin-3-yl)carbamate]	–	–	PXR activation (PXR [2]): does not activate PXR
CCOC(=O)Nc1ccc2c(c1)N(C(=O)CN1CCOCC1)c1ccccc1CC2 [Compound 12]	about 3 fold	–	–
CCOC(=O)Nc1ccc2c(c1)N(C(=O)CN1CCN(C)CC1)c1ccccc1CC2 [Compound 13]	–	56 fold	–
CC(C)OC(=O)Nc1ccc2c(c1)N(C(=O)CCN(C)C)c1ccccc1CC2 [Compound 20]	–	–	fold increase in potency compared to chemical 18 (GST-hCAR-LBD; comparator 18): about 3 fold
CCOC(=O)Nc1ccc2c(c1)N(C(=O)CN1C(C)(C)CCCC1(C)C)c1ccccc1CC2 [Compound 26, Ethyl (5-(2-(2,2,6,6-tetramethylpiperidin-1-yl)acetyl)-10,11-dihydro-5H-dibenzo[b,f]azepin-3-yl)carbamate]	–	–	fold IC50 relative to chemical 25 (GST-hCAR-LBD; comparator 25): over 6 fold
CCOC(=O)Nc1ccc2c(c1)N(C(=O)CN1C(=O)C=CC1=O)c1ccccc1CC2 [Compound 28, Ethyl (5-(2-(2,5-dioxo-2,5-dihydro-1H-pyrrol-1-yl)acetyl)-10,11-dihydro-5H-dibenzo[b,f]azepin-3-yl)carbamate]	–	–	fold IC50 relative to chemical 24 (GST-hCAR-LBD; comparator 24, less active): 25 fold
CCOC(=O)Nc1ccc2c(c1)N(C(=O)Cn1ccnc1)c1ccccc1CC2 [Compound 30, Ethyl (5-(2-(1H-imidazol-1-yl)acetyl)-10,11-dihydro-5H-dibenzo[b,f]azepin-3-yl)carbamate]	–	–	fold IC50 relative to chemical 29 (GST-hCAR-LBD; comparator 29, loss of activity): 186 fold
CCOC(=O)Nc1ccc2c(c1)N(C(=O)COC(C)(C)C)c1ccccc1CC2 [Compound 35, Ethyl (5-(2-(tert-butoxy)acetyl)-10,11-dihydro-5H-dibenzo[b,f]azepin-3-yl)carbamate]	9.7 fold	–	–
CCN(CC)CC(=O)N1c2ccccc2CCc2ccc(Nc3nnc(C)o3)cc21 [Compound 44, 2-(Diethylamino)-1-(3-((5-methyl-1,3,4-oxadiazol-2-yl)amino)-10,11-dihydro-5H-dibenzo[b,f]azepin-5-yl)ethan-1-one]	–	about 3.4 fold	–
CC(C)OC(=O)Nc1ccc2c(c1)N(C(=O)Cn1cccc1)c1ccccc1CC2 [Compound 56, Isopropyl (5-(2-(1H-pyrrol-1-yl)acetyl)-10,11-dihydro-5H-dibenzo[b,f]azepin-3-yl)carbamate]	32.8 fold	–	–
O=C(Nc1ccc2c(c1)N(C(=O)Cn1cccc1)c1ccccc1CC2)OC1CCCCC1 [Compound 72, Cyclohexyl (5-(2-(1H-pyrrol-1-yl)acetyl)-10,11-dihydro-5H-dibenzo[b,f]azepin-3-yl)carbamate]	about 59 fold	–	–
Cc1cccc(CN2CCN(C(c3ccccc3)c3ccc(Cl)cc3)CC2)c1 (stereo not shown) [Meclizine]	–	–	hCAR inverse agonist or antagonist effect (hCAR): failed to act as an effective hCAR inverse agonist or antagonist
